Measurements: patent publication US10766869B2, “Triazoles for the treatment of demyelinating dieases” (Vertex Pharmaceuticals Incorporated, priority 2015, dated 2020)

Tested on: primary rat mixed cortical cells
Assay: In vitro myelination assay (MBP positive myelin strands, fold myelin pixels above background)
Assay type: cell-based
Settings: Rattus norvegicus, relative to baseline of no added compound, read-out: Fold myelin pixels above background; for fold induction at 1 µM: 1.0 μM compound; for fold induction at 10 µM: 10.0 μM compound
Procedure, shortened: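 Myelination read as total MBP-immunopositive strand pixels per well, imaged at 10× after fixation on day 14 and expressed relative to untreated wells, at 1.0 and 10.0 μM. Cells: dissociated postnatal day 1 rat cortex, cultured two weeks with compound, re-dosed at days 6 and 10.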

| Structure (SMILES) | fold induction at 1 µM | fold induction at 10 µM |
| --- | --- | --- |
| CC(F)(F)c1cc(Nc2ncn(-c3cc(F)cc(F)c3)n2)nc(N2CCN(C3COC3)CC2)c1 [Compound 685, 4-(1,1-difluoroethyl)-N-[1-(3,5-difluorophenyl)-1,2,4-triazol-3-yl]-6-[4-(oxetan-3-yl)piperazin-1-yl]pyridin-2-amine] | 10 to 100 | 1 to 10 |
| Fc1cc(Nc2ncn(-c3cc(F)cc(F)c3)n2)cc(NC2COC2)c1 [Compound 686, N3-[1-(3,5-difluorophenyl)-1,2,4-triazol-3-yl]-5-fluoro-N1-(oxetan-3-yl)benzene-1,3-diamine] | 1 to 10 | 1 to 10 |
| Cc1cc(Nc2ncn(-c3ccc(C#N)cc3)n2)cc(N2CCN(C3COC3)CC2)c1 [Compound 687, 4-[3-[3-methyl-5-[4-(oxetan-3-yl)piperazin-1-yl]anilino]-1,2,4-triazol-1-yl]benzonitrile] | 1 to 10 | 1 to 10 |
| Cc1cc(Nc2ncn(-c3cc(F)cc(F)c3)n2)c(F)c(N2CC3(CNC3)C2)c1 [Compound 688, N-[3-(2,6-diazaspiro[3.3]heptan-2-yl)-2-fluoro-5-methyl-phenyl]-1-(3,5-difluorophenyl)-1,2,4-triazol-3-amine] | 1 to 10 | ≤ 1 |
| Cc1cc(Nc2ncn(-c3cccc(C(F)F)c3)n2)nc(NC2CCOC2)c1 (stereo not drawn) [Compound 689, N6-[1-[3-(difluoromethyl)phenyl]-1,2,4-triazol-3-yl]-4-methyl-N2-tetrahydrofuran-3-yl-pyridine-2,6-diamine] | 1 to 10 | 1 to 10 |
| Cc1cc(Nc2ncn(-c3cc(F)cc(F)c3)n2)cc(N2CC(C(=O)N3CCOCC3)C2)c1 [Compound 690, [1-[3-[[1-(3,5-difluorophenyl)-1,2,4-triazol-3-yl]amino]-5-methyl-phenyl]azetidin-3-yl]-morpholino-methanone] | 1 to 10 | 10 to 100 |
| Cc1cc(Nc2ncn(-c3cc(F)cc(F)c3)n2)cc(N2CC3CCC(C2)O3)c1 [Compound 692, 1-(3,5-difluorophenyl)-N-[3-methyl-5-(8-oxa-3-azabicyclo[3.2.1]octan-3-yl)phenyl]-1,2,4-triazol-3-amine] | 10 to 100 | 10 to 100 |
| COc1cc(Nc2ncn(-c3cccc(C(F)F)c3)n2)cc(N2CCN(C3COC3)CC2)c1 [Compound 693, 1-[3-(difluoromethyl)phenyl]-N-[3-methoxy-5-[4-(oxetan-3-yl)piperazin-1-yl]phenyl]-1,2,4-triazol-3-amine] | 1 to 10 | ≤ 1 |
| Cc1cc(Nc2ncn(-c3cc(F)cc(F)c3)n2)cc(N2C3COCC2C3)c1 [Compound 694, 1-(3,5-difluorophenyl)-N-[3-methyl-5-(3-oxa-6-azabicyclo[3.1.1]heptan-6-yl)phenyl]-1,2,4-triazol-3-amine] | 10 to 100 | ≤ 1 |
| Cc1cc(Nc2ncn(-c3ccc(F)cc3)n2)cc(N2CCN(C3(C)COC3)CC2)c1 [Compound 695, 1-(4-fluorophenyl)-N-[3-methyl-5-[4-(3-methyloxetan-3-yl)piperazin-1-yl]phenyl]-1,2,4-triazol-3-amine] | 1 to 10 | 1 to 10 |
| Cc1cc(Nc2ncn(-c3cc(F)cc(F)c3)n2)c(C)c(N2CCN(C3COC3)CC2)c1 [Compound 697, 1-(3,5-difluorophenyl)-N-[2,5-dimethyl-3-[4-(oxetan-3-yl)piperazin-1-yl]phenyl]-1,2,4-triazol-3-amine] | 1 to 10 | 10 to 100 |
| Cc1cc(Nc2ncn(-c3ccc(F)c(F)c3)n2)cc(OCCn2cccn2)c1 [Compound 698, 1-(3,4-difluorophenyl)-N-[3-methyl-5-(2-pyrazol-1-ylethoxy)phenyl]-1,2,4-triazol-3-amine] | 10 to 100 | 10 to 100 |
| Cc1cc(Nc2cc(C)[nH]n2)cc(Nc2ncn(-c3ccccc3)n2)c1 [Compound 699, 5-methyl-N3-(5-methyl-1H-pyrazol-3-yl)-N1-(1-phenyl-1,2,4-triazol-3-yl)benzene-1,3-diamine] | 1 to 10 | ≤ 1 |
| Fc1cc(F)cc(-n2cnc(Nc3cc(N4CCN(C5COC5)CC4)cc(N4CC(N5CCOCC5)C4)c3)n2)c1 [Compound 701, 1-(3,5-difluorophenyl)-N-[3-(3-morpholinoazetidin-1-yl)-5-[4-(oxetan-3-yl)piperazin-1-yl]phenyl]-1,2,4-triazol-3-amine] | 10 to 100 | ≤ 1 |
| Cc1cc(Nc2ncn(-c3cc(F)cc(F)c3)n2)nc(N2CCN(C(C)(C)C)CC2)c1 [Compound 702, 6-(4-tert-butylpiperazin-1-yl)-N-[1-(3,5-difluorophenyl)-1,2,4-triazol-3-yl]-4-methyl-pyridin-2-amine] | 10 to 100 | 10 to 100 |
| Cc1cc(Nc2ncn(-c3cc(F)cc(F)c3)n2)cc(OC2CCOC2)c1 (stereo not drawn) [Compound 703, 1-(3,5-difluorophenyl)-N-(3-methyl-5-tetrahydrofuran-3-yloxy-phenyl)-1,2,4-triazol-3-amine] | 10 to 100 | 1 to 10 |
| Cc1cc(Nc2ncn(-c3ccccc3)n2)cc(N2CC(N3CCOCC3)C2)c1 [Compound 704, N-[3-methyl-5-(3-morpholinoazetidin-1-yl)phenyl]-1-phenyl-1,2,4-triazol-3-amine] | 10 to 100 | ≤ 1 |
| Fc1cc(F)cc(-n2cnc(Nc3cc(Cl)cc(NC4COC4)c3)n2)c1 [Compound 705, 5-chloro-N3-[1-(3,5-difluorophenyl)-1,2,4-triazol-3-yl]-N1-(oxetan-3-yl)benzene-1,3-diamine] | 10 to 100 | 1 to 10 |
| Cc1cc(Nc2ncn(-c3cc(F)cc(F)c3)n2)cc(OCC2CC(F)(F)C2)c1 [Compound 706, N-[3-[(3,3-difluorocyclobutyl)methoxy]-5-methyl-phenyl]-1-(3,5-difluorophenyl)-1,2,4-triazol-3-amine] | 1 to 10 | 1 to 10 |
| N#Cc1cc(N2CCN(C3COC3)CC2)cc(Nc2ncn(-c3cc(F)cc(F)c3)n2)n1 [Compound 707, 6-[[1-(3,5-difluorophenyl)-1,2,4-triazol-3-yl]amino]-4-[4-(oxetan-3-yl)piperazin-1-yl]pyridine-2-carbonitrile] | ≤ 1 | ≤ 1 |
| Cc1cc(Nc2ncn(-c3cc(F)cc(F)c3)n2)cc(C2(C)CN(C3COC3)CCO2)c1 (stereo not drawn) [Compound 708, 1-(3,5-difluorophenyl)-N-[3-methyl-5-[2-methyl-4-(oxetan-3-yl)morpholin-2-yl]phenyl]-1,2,4-triazol-3-amine] | 1 to 10 | ≤ 1 |
| Cc1cc(Nc2ncn(-c3cc(F)cc(F)c3)n2)cc(N2CCN(C(C)(C)C)CC2)c1 [Compound 709, N-[3-(4-tert-butylpiperazin-1-yl)-5-methyl-phenyl]-1-(3,5-difluorophenyl)-1,2,4-triazol-3-amine] | 1 to 10 | 1 to 10 |
| COc1ccc(-n2cnc(Nc3cc(C)cc(N4CCN(C5COC5)CC4)c3)n2)cc1 [Compound 710, 1-(4-methoxyphenyl)-N-[3-methyl-5-[4-(oxetan-3-yl)piperazin-1-yl]phenyl]-1,2,4-triazol-3-amine] | 10 to 100 | ≤ 1 |
| Cc1cc(Nc2ncn(-c3cc(F)cc(F)c3)n2)cc(N2CC(C(=O)N(C)C)C2)c1 [Compound 711, 1-[3-[[1-(3,5-difluorophenyl)-1,2,4-triazol-3-yl]amino]-5-methyl-phenyl]-N,N-dimethyl-azetidine-3-carboxamide] | 10 to 100 | 1 to 10 |
| FC(F)(F)c1cc(Nc2ncn(-c3cnccn3)n2)nc(N2CCN(C3COC3)CC2)c1 [Compound 712, 6-[4-(oxetan-3-yl)piperazin-1-yl]-N-(1-pyrazin-2-yl-1,2,4-triazol-3-yl)-4-(trifluoromethyl)pyridin-2-amine] | 1 to 10 | 1 to 10 |
| OCc1cc(Nc2ncn(-c3ccc(F)c(F)c3)n2)nc(N2CCN(C3COC3)CC2)c1 [Compound 713, [2-[[1-(3,4-difluorophenyl)-1,2,4-triazol-3-yl]amino]-6-[4-(oxetan-3-yl)piperazin-1-yl]-4-pyridyl]methanol] | 10 to 100 | 10 to 100 |
| Cc1cc(Nc2ncn(-c3ccc(F)c(F)c3)n2)cc(OCc2ccn(C)n2)c1 [Compound 714, 1-(3,4-difluorophenyl)-N-[3-methyl-5-[(1-methylpyrazol-3-yl)methoxy]phenyl]-1,2,4-triazol-3-amine] | 10 to 100 | 10 to 100 |
| CCc1cc(Nc2ncn(-c3ccc(C)c(Cl)c3)n2)cc(N2CCN(C3COC3)CC2)c1 [Compound 715, 1-(3-chloro-4-methyl-phenyl)-N-[3-ethyl-5-[4-(oxetan-3-yl)piperazin-1-yl]phenyl]-1,2,4-triazol-3-amine] | 10 to 100 | 1 to 10 |
| CC1(N2CCN(c3cc(C(F)F)cc(Nc4ncn(-c5cc(F)cc(F)c5)n4)n3)CC2)COC1 [Compound 716, 4-(difluoromethyl)-N-[1-(3,5-difluorophenyl)-1,2,4-triazol-3-yl]-6-[4-(3-methyloxetan-3-yl)piperazin-1-yl]pyridin-2-amine] | 1 to 10 | 100 to 1000 |
| Cc1cc(Nc2ncn(-c3cc(F)cc(F)c3)n2)cc(N2CC(N3CC4CCC(C3)O4)C2)c1 [Compound 717, 1-(3,5-difluorophenyl)-N-[3-methyl-5-[3-(8-oxa-3-azabicyclo[3.2.1]octan-3-yl)azetidin-1-yl]phenyl]-1,2,4-triazol-3-amine] | 1 to 10 | 10 to 100 |
